{"source": "patent US10094834B2", "about": "“Method of selecting individualized brain cancer therapy” (TURUN YLIOPISTO, priority 2012, dated 2018)", "format_in_all_cases": "cell-based, human", "key": {"T98G glioblastoma cells [1]": {"test_system": "T98G glioblastoma cells", "assay": "Apoptosis assay by sub-G0/G1 fraction estimation (nuclear fragmentation, PI/FACS)", "settings": "for apoptotic nuclear fragmentation (sub-G0/G1 fraction): T98G cells depleted of PME-1 (PME-1 siRNA 48 hrs), drug treatment 24 hrs; for effect on PME-1 siRNA and STS mediated apoptosis (nuclear fragmentation): T98G", "description": "The percentage of the sub-G0/G1 fraction containing fragmented nuclei stained with Propidium iodide (PI) was taken as a measure of apoptotic cells. 3.5-4×10^4 cells were plated in 24-well plates, transfected with siRNA for 48 hrs, and then treated with indicated concentration of test compounds in fresh media. After 24 hrs of treatment, both floating and adherent cells were harvested by centrifugation. Cell pellets were resuspended in 400 μl of hypotonic PI buffer, containing 40 mM Tri-sodium citrate (Merck), 0.3% Triton X-100 (Sigma-Aldrich) and 50 μg/ml Propidium iodide (Sigma-Aldrich) in PBS, and incubated at room temperature for 10 minutes in dark. The flow cytometric analysis of PI stained nuclei was performed and the recorded data was analyzed using a FACScan flow cytometer and software (Becton Dickinson) respectively.\nIn experiments using pan-caspase inhibitor, cells were kept in growth media containing 30 μM Z-VAD-FMK starting from 18 hrs after transfection till the PI staining.\nThe T98G cells transfected with siRNA for 48 hrs were given drug treatments for 24 hrs and were subsequently lysed, and their nuclei were stained using hypotonic propidium iodide buffer. The lysates were analysed for changes in the sub-G0/G1 fraction of fragmented nuclei by flow cytometry (FACS) (FIG. 1B). Condensation and fragmentation of nucleus is a key biochemical feature of apoptosis and sub-G0/G1 analysis has been widely used for detection of apoptosis (FEBS Lett., 1986, 194(2):347-50; Cytometry, 1991, 12(4):323-329; Nature Protocols, 2006, 1:1458-1461)."}, "[2]": {"test_system": "U251MG glioblastoma cells", "assay": "Colony formation assay, U251MG", "settings": "PME-1 depleted versus scrambled siRNA, 2 days of treatment", "source_text": "(§1) Cells plated in very low density (4-6×10^3) in 6-well plates were allowed to grow for about 7 days until they form small colonies. These cells were then transfected with Scrambled or PME-1 siRNA using Lipofectamine RNAiMAX reagent (Invitrogen) according to the manufacturer's instructions. After 48 hrs, treatments were given with indicated concentration of chemical drugs for another 48 hrs. Cell colonies were washed with PBS, fixed with 3.7% formaldehyde and stained with 0.2% crystal violet solution (made in 10% ethanol) for 15 minutes at room temperature each. Excess stain was removed by repeated washings with PBS. Plates were dried and pictures were taken with Olympus SP-600UZ camera or Epson perfection […] scanner and analysed with ImageJ."}, "U87MG glioblastoma cells": {"test_system": "U87MG glioblastoma cells", "assay": "Colony formation assay, U87MG", "settings": "PME-1 depleted versus scrambled siRNA, 2 days of treatment", "source_text": "as §1"}, "T98G glioblastoma cells [3]": {"test_system": "T98G glioblastoma cells", "assay": "Colony formation assay, T98G", "source_text": "(§2) Cells plated in very low density (4-6×10^3) in 6-well plates were allowed to grow for about 7 days until they form small colonies. These cells were then transfected with Scrambled or PME-1 siRNA using Lipofectamine RNAiMAX reagent (Invitrogen) according to the manufacturer's instructions. After 48 hrs, treatments were given with indicated concentration of chemical drugs for another 48 hrs. Cell colonies were washed with PBS, fixed with 3.7% formaldehyde and stained with 0.2% crystal violet solution (made in 10% ethanol) for 15 minutes at room temperature each. Excess stain was removed by repeated washings with PBS. Plates were dried and pictures were taken with Olympus SP-600UZ camera or Epson perfection V700 scanner and analysed with ImageJ.\n(§3) Next, the effect of PME-1 expression on the sensitivity of glioblastoma cells to STS was tested by colony formation assay in T98G glioblastoma cells and another glioblastoma cell line U118MG. For this experiment, these cells were grown in 6-well plates until the formation of small colonies which were then transfected with Scrambled or PME-1 siRNA for 48 hrs followed by treatment with STS at the indicated concentrations for another 48 hrs. […] Similar results were obtained with both glioblastoma cell lines."}, "[4]": {"test_system": "U118MG glioblastoma cells", "assay": "Colony formation assay, U118MG", "source_text": "as §2, §3"}, "T98G glioblastoma cells [5]": {"test_system": "T98G glioblastoma cells", "assay": "Cell viability assay, CellTiter-glo (CTG)", "description": "Cell viability was determined by CellTiter-glo (CTG) assay which measures the cellular ATP levels as an indicator of metabolically active and viable cells. CTG reagent kit was purchased from Promega Corp. and assays were performed according to their recommendations. Assays were performed in white polystyrene 96-well plates (Nunc, Thermo Fisher Scientific Inc.) and luminescence was measured with Perkin Elmer Victor2 Plate Reader."}, "[6]": {"test_system": "Caspase-3/7 in T98G cells", "assay": "Caspase-3 and -7 activity, Caspase-Glo 3/7 Assay", "description": "Caspase-3 and -7 activity was measured by luminescence based method, which utilize a substrate containing Caspase-3 and -7 target peptide DEVD, named Caspase-Glo 3/7 Assay (Promega Corp.). Assays were performed in white polystyrene 96-well plates (Nunc, Thermo Fisher Scientific Inc.) according to manufacturer's instructions and luminescence was measured with Perkin Elmer Victor2 Plate Reader."}, "[7]": {"settings": "PME-1 siRNA 48 hrs then drug 48 hrs"}, "[8]": {"settings": "scrambled siRNA (intact PME-1), drug 48 hrs"}}, "note": "Entries after “also recorded” stand apart in the source; their conditions may differ.", "data": [{"compound": "C[C@]12O[C@H](C[C@]1(O)CO)n1c3ccccc3c3c4c(c5c6ccccc6n2c5c31)CNC4=O", "note": "[CEP-701, (9S,10S,12R)-2,3,9,10,11,12-Hexahydro-10-hydroxy-10-(hydroxymethyl)-9-methyl-9,12-epoxy-1H-diindolo[1,2,3-fg:3′,2′,1′-kl]pyrrolo[3,4-i][1,6]benzo di-azocin-1-one]", "values": [{"measurement": "apoptotic nuclear fragmentation (sub-G0/G1 fraction)", "setting": "T98G glioblastoma cells [1]", "value": "levels even higher than STS itself"}]}, {"compound": "CC1CNCCN1S(=O)(=O)c1cccc2cnccc12", "note": "(centres unmarked) [H7]", "values": [{"measurement": "apoptotic nuclear fragmentation (sub-G0/G1 fraction)", "setting": "T98G glioblastoma cells [1]", "value": "moderate"}]}, {"compound": "COC(=O)[C@@]1(O)C[C@H]2O[C@]1(C)n1c3ccccc3c3c4c(c5c6ccccc6n2c5c31)C(=O)NC4", "note": "[K252a]", "values": [{"measurement": "apoptotic nuclear fragmentation (sub-G0/G1 fraction)", "setting": "T98G glioblastoma cells [1]", "value": "levels even higher than STS itself"}, {"measurement": "cell killing activity, colony formation", "setting": "[2]", "value": "enhanced the cell killing activity"}, {"measurement": "cell killing activity, colony formation", "setting": "U87MG glioblastoma cells", "value": "enhanced the cell killing activity"}]}, {"compound": "CO[C@@H]1[C@H](N(C)C(=O)c2ccccc2)C[C@H]2O[C@]1(C)n1c3ccccc3c3c4c(c5c6ccccc6n2c5c31)C(=O)NC4", "note": "[PKC412, [9S-(9α, 10β,11β,13α)]-N-(2,3,10,11,12,13-Hexahydro-10-methoxy-9-methyl-1-oxo-9,13-epoxy-1H,9H-diindolo[1,2,3-gh:3′,2′,1′-lm]pyrrolo[3,4-j][1,7]benzodiazonin-11-yl)-N-methyl benzamide]", "values": [{"measurement": "apoptotic nuclear fragmentation (sub-G0/G1 fraction)", "setting": "T98G glioblastoma cells [1]", "value": "levels even higher than STS itself"}, {"measurement": "cell killing activity, colony formation", "setting": "[2]", "value": "enhanced the cell killing activity"}, {"measurement": "cell killing activity, colony formation", "setting": "U87MG glioblastoma cells", "value": "enhanced the cell killing activity"}]}, {"compound": "O=C1NC(=O)c2c1c1c3ccccc3n3c1c1c2c2ccccc2n1C1CCC3O1", "note": "[SB 218078, 9,10,11,12-Tetrahydro-9,12-epoxy-1H-diindolo[1,2,3-fg:3′,2′,1′-kl]pyrrolo[3,4-i][1,6]benzodi-azocine-1,3(2H)-dione]", "values": [{"measurement": "apoptotic nuclear fragmentation (sub-G0/G1 fraction)", "setting": "T98G glioblastoma cells [1]", "value": "moderate levels of apoptosis at higher concentration"}]}, {"compound": "CN[C@@H]1C[C@H]2O[C@@](C)([C@@H]1OC)n1c3ccccc3c3c4c(c5c6ccccc6n2c5c31)C(=O)NC4", "note": "[STS, [9S-(9α,10β,11β,13α)]-2,3,10,11,12,13-Hexa-hydro-10-methoxy-9-methyl-11-(methylamino)-9,13-epoxy-1H,9H-diindolo[1,2,3-gh:3′,2′,1′-lm]pyrrolo[3,4-j][1,7]benzo diazonin-1-one]", "values": [{"measurement": "apoptotic nuclear fragmentation (sub-G0/G1 fraction)", "setting": "T98G glioblastoma cells [1]", "value": "very high level of nuclear fragmentation; also recorded: induce apoptosis in a dose dependent manner; also recorded: highly sensitive to STS induced cell death even at lowest concentrations"}, {"measurement": "concentration at which drug alone started inducing cell death", "setting": "T98G glioblastoma cells [1]; control (Scrambled siRNA transfected) T98G cells", "value": "higher than 50 nM"}, {"measurement": "concentration at which limited cell death was observed with drug alone", "setting": "T98G glioblastoma cells [1]; untransfected T98G cells", "value": "higher than 30 nM"}, {"measurement": "colony formation (colonogenic potential)", "setting": "T98G glioblastoma cells [3]; [7]", "value": "almost complete loss of colonies"}, {"measurement": "colony formation (colonogenic potential)", "setting": "T98G glioblastoma cells [3]; [8]", "value": "did not respond well"}, {"measurement": "colony formation (colonogenic potential)", "setting": "[4]; [7]", "value": "almost complete loss of colonies"}, {"measurement": "colony formation (colonogenic potential)", "setting": "[4]; [8]", "value": "did not respond well"}, {"measurement": "cell killing activity, colony formation", "setting": "[2]", "value": "enhanced the cell killing activity"}, {"measurement": "cell killing activity, colony formation", "setting": "U87MG glioblastoma cells", "value": "enhanced the cell killing activity"}, {"measurement": "cell viability (CTG)", "setting": "T98G glioblastoma cells [5]; PME-1 siRNA plus STS treatment", "value": "drastic decrease in the cell viability"}, {"measurement": "increase of Caspase-3/7 activity", "setting": "[6]; PME-1 depletion in combination with STS treatment", "value": "above 6 fold"}]}, {"compound": "CN[C@@H]1C[C@H]2O[C@@](C)([C@@H]1OC)n1c3ccccc3c3c4c(c5c6ccccc6n2c5c31)C(=O)N[C@H]4O", "note": "[UCN-01, (9S)-2,3,10,11,12,13-Hexahydro-3α-hydroxy-10α-methoxy-9-methyl-11α-methyl amino-9β,13β-epoxy-1H,9H-diindolo[1,2,3-gh:3′,2′,1′-lm]pyrrolo[3,4-j][1,7]benzo diazonin-1-one]", "values": [{"measurement": "apoptotic nuclear fragmentation (sub-G0/G1 fraction)", "setting": "T98G glioblastoma cells [1]", "value": "levels even higher than STS itself"}]}, {"compound": "C=C1[C@@H](O)[C@@H]2O[C@]3(CC[C@H](/C=C/[C@@H](C)[C@@H]4CC(C)=C[C@@]5(O[C@H](C[C@@](C)(O)C(=O)O)CC[C@H]5O)O4)O3)CC[C@H]2O[C@@H]1[C@@H](O)C[C@H](C)[C@H]1O[C@@]2(CCCCO2)CC[C@H]1C", "note": "[okadaic acid]", "values": [{"measurement": "effect on PME-1 siRNA and STS mediated apoptosis (nuclear fragmentation)", "setting": "T98G glioblastoma cells [1]; PP2A inhibitor pre-treatment 24 hrs prior STS treatment", "value": "sufficient to rescue cells"}]}, {"compound": "PME-1 siRNA: PME-1 siRNA 5′-GGA AGU GAG UCU AUA AGC A-3′; SEQ ID NO:1 (GGAAGUGAGUCUAUAAGCA; listed as RNA, chemistry not given here)", "values": [{"measurement": "cell viability (CTG)", "setting": "T98G glioblastoma cells [5]; PME-1 siRNA alone", "value": "reduced cell viability by small fraction"}, {"measurement": "increase of Caspase-3/7 activity", "setting": "[6]; PME-1 depletion alone", "value": "more than 2 fold"}]}, {"compound": "TRAIL", "values": [{"measurement": "apoptotic nuclear fragmentation (sub-G0/G1 fraction)", "setting": "T98G glioblastoma cells [1]", "value": "did not show the same trend"}]}, {"compound": "z-VAD-fmk", "values": [{"measurement": "effect on PME-1 siRNA and STS mediated apoptosis (nuclear fragmentation)", "setting": "T98G glioblastoma cells [1]; PME-1 siRNA plus STS, pan-caspase inhibitor 30 μM throughout the experiment", "value": "complete reversal"}]}]}
